Test results as given in the supplement of paper PMC10307832.

Key:
Assay in all cases: relative viability (nuclei count vs DMSO), 5 days (fraction); higher = more cells survive
[1] = compound: CC(C)(C)c1cc(NC(=O)Nc2ccc(-c3cn4c(n3)sc3cc(OCCN5CCOCC5)ccc34)cc2)no1 [Quizartinib] + O=C(c1cc(Cc2n[nH]c(=O)c3ccccc23)ccc1F)N1CCN(C(=O)C2CC2)CC1 [Olaparib] (partner 8 µM)
How it was run: (§1)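 Nuclei were stained with Hoechst during a one-step fixation (final 0.05% Triton X-100, 1% formaldehyde, 1 ug/ml Hoechst) carried out 5 days after dosing, then counted on 4× images. The cells, lung cancer lines in 1536-well plates, had been dosed by pin tool the day after seeding with one drug alone or a fixed anchor-drug dose plus five library-drug doses (not always all listed) in √10 steps. Relative viability is the nuclei count in treated wells divided by that in vehicle wells, and each value is the median of duplicate plates.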

[2] = compound: COCC[n+]1c2c(n(Cc3cnccn3)c1C)C(=O)c1ccccc1C2=O [YM155] + Cc1cc(Nc2cc(N3CCN(C)CC3)nc(Sc3ccc(NC(=O)C4CC4)cc3)n2)n[nH]1 [Tozasertib] (partner 0.1 µM)
How it was run: as §1

[3] = compound: COCC[n+]1c2c(n(Cc3cnccn3)c1C)C(=O)c1ccccc1C2=O [YM155] + Nc1ncn([C@H]2C[C@H](O)[C@@H](CO)O2)c(=O)n1 [Decitabine] (partner 2 µM)
How it was run: as §1

[4] = compound: CC(C)(C)c1cc(NC(=O)Nc2ccc(-c3cn4c(n3)sc3cc(OCCN5CCOCC5)ccc34)cc2)no1 [Quizartinib] + CS(=O)(=O)CCNCc1ccc(-c2ccc3ncnc(Nc4ccc(OCc5cccc(F)c5)c(Cl)c4)c3c2)o1 [Lapatinib] (partner 2 µM)
How it was run: as §1

Cell Line | relative viability ([1]; first compound 0.001 µM) | relative viability ([1]; first compound 0.003162 µM) | relative viability ([1]; first compound 0.01 µM) | relative viability ([1]; first compound 0.1 µM) | relative viability ([2]; first compound 0.002 µM) | relative viability ([2]; first compound 0.006325 µM) | relative viability ([2]; first compound 0.02 µM) | relative viability ([2]; first compound 0.06325 µM) | relative viability ([3]; first compound 0.002 µM) | relative viability ([3]; first compound 0.006325 µM) | relative viability ([3]; first compound 0.02 µM) | relative viability ([3]; first compound 0.06325 µM) | relative viability ([4]; first compound 0.001 µM) | relative viability ([4]; first compound 0.003162 µM) | relative viability ([4]; first compound 0.01 µM) | relative viability ([4]; first compound 0.1 µM) | relative viability ([4]; first compound 0.03162 µM) | relative viability ([1]; first compound 0.03162 µM)
NCI-H1650 | 0.793 | 0.816 | 0.607 | 0.737 | 0.33 | 0.468 | 0.485 | 0.266 | 0.382 | 0.384 | 0.452 | 0.203 | 0.189 | 0.782 | 0.579 | 0.686 |  | 
EMC-BAC-2 | 0.468 | 0.441 | 0.524 | 0.536 | 0.265 | 0.256 | 0.273 | 0.275 | 1.01 | 1.05 | 0.948 | 0.651 | 0.809 | 0.94 | 0.823 | 0.946 | 0.671 | 
NCI-H520 |  | 0.308 | 0.367 | 0.29 | 0.432 | 0.496 | 0.48 | 0.377 | 0.469 | 0.531 | 0.531 | 0.397 | 0.649 | 0.766 | 0.828 | 0.591 | 0.85 | 0.352
NCI-H1355 | 0.659 | 0.737 | 0.761 | 0.679 | 0.617 | 0.518 | 0.654 | 0.597 | 0.312 | 0.374 | 0.383 | 0.357 | 0.979 | 0.992 | 1 | 1.06 | 0.914 | 0.748
HCC-366 | 0.324 | 0.369 | 0.332 | 0.389 | 0.142 | 0.136 | 0.135 | 0.113 | 0.358 | 0.366 | 0.345 | 0.316 | 0.931 | 0.992 | 1.06 | 1 | 0.897 | 0.328
NCI-H1915 | 0.257 | 0.263 | 0.287 | 0.253 | 0.393 | 0.458 | 0.444 | 0.36 | 0.277 | 0.256 | 0.264 | 0.267 | 0.939 | 0.931 | 0.938 | 1.04 | 0.965 | 0.261
HARA | 0.854 | 0.803 | 0.68 | 0.759 | 0.0954 | 0.122 | 0.13 | 0.121 |  | 0.566 | 0.578 | 0.57 | 0.748 | 0.551 | 0.827 | 0.736 | 1.08 | 0.996
NCI-H358 | 0.548 | 0.6 | 0.585 | 0.67 | 0.111 | 0.126 | 0.103 | 0.0626 | 0.257 | 0.2 | 0.199 | 0.22 | 0.349 | 0.516 | 0.412 | 0.39 |  | 
PC-3 [JPC-3] | 1.15 | 1.1 | 1.21 | 1.12 | 0.879 | 0.984 | 0.869 | 0.941 | 0.778 | 0.796 | 0.89 | 0.701 | 0.416 | 0.472 | 0.471 | 0.415 | 0.481 | 1.05
LXF-289 | 0.901 | 0.987 | 1.16 | 0.992 | 0.186 | 0.214 | 0.205 | 0.183 | 0.354 | 0.39 | 0.371 | 0.379 | 0.788 | 0.838 | 0.932 | 0.892 | 0.923 | 1
NCI-H2170 | 0.567 | 0.681 | 0.656 | 0.54 | 0.831 | 0.792 | 0.784 | 0.722 | 0.506 | 0.508 | 0.42 | 0.516 | 0.257 | 0.273 | 0.253 | 0.272 | 0.262 | 0.584
NCI-H2126 | 0.914 | 0.915 | 0.896 | 0.882 | 0.807 | 0.88 | 0.948 | 0.934 | 0.53 | 0.624 | 0.59 | 0.6 | 0.704 | 0.705 | 0.744 | 0.863 | 0.801 | 0.984
NCI-H1755 | 0.832 | 0.809 | 0.946 | 0.855 | 0.51 | 0.584 | 0.603 | 0.54 | 0.697 | 0.711 | 0.723 | 0.784 | 0.909 | 0.98 | 1.1 | 1.04 | 1.07 | 0.948
HCC-827 | 0.653 | 0.556 |  | 0.697 | 0.421 | 0.416 | 0.448 | 0.475 | 0.352 | 0.408 | 0.299 | 0.354 | 0.196 | 0.22 | 0.19 | 0.214 | 0.164 | 0.616
NCI-H838 | 0.641 | 0.683 | 0.77 | 0.361 | 0.252 | 0.275 | 0.252 | 0.19 | 0.423 | 0.471 | 0.399 | 0.383 | 0.816 | 1.11 | 0.784 | 0.605 | 0.675 | 0.678
NCI-H3122 | 0.573 | 0.637 | 0.653 | 0.676 | 0.43 | 0.423 | 0.396 | 0.273 | 0.428 | 0.432 | 0.482 | 0.486 | 1.08 | 0.903 | 1.04 | 1.04 | 1.05 | 0.69
HCC-78 | 0.732 | 0.753 | 0.899 | 0.92 | 0.442 | 0.454 | 0.52 | 0.498 | 0.647 | 0.751 | 0.739 | 0.741 | 0.869 | 0.901 | 0.576 | 0.703 | 0.702 | 0.706
NCI-H322M | 0.769 | 0.721 | 0.739 | 0.825 | 0.461 | 0.496 | 0.504 | 0.46 | 0.689 | 0.722 | 0.7 | 0.753 | 0.565 | 0.502 | 0.605 | 0.673 | 0.628 | 0.678
NCI-H1975 | 0.813 | 0.77 | 0.87 | 0.791 | 0.715 | 0.704 | 0.859 | 0.163 | 0.344 | 0.338 | 0.423 | 0.353 | 0.746 | 0.894 | 0.847 | 1.18 | 0.864 | 0.784
NCI-H2023 | 0.418 | 0.422 | 0.513 | 0.417 | 0.416 | 0.433 | 0.314 | 0.0926 | 0.224 | 0.201 | 0.193 | 0.184 | 0.0985 | 0.819 | 0.737 | 0.846 | 0.293 | 
COR-L 105 | 0.705 | 0.795 | 0.65 | 0.863 | 0.345 | 0.352 | 0.316 | 0.327 | 0.552 | 0.671 | 0.519 | 0.442 | 0.362 | 0.388 | 0.376 | 0.352 | 0.409 | 
NCI-H23 | 0.273 | 0.269 | 0.372 | 0.264 | 0.373 | 0.345 | 0.53 | 0.286 |  | 0.278 | 0.291 | 0.363 |  | 0.959 | 1.28 | 1.01 | 0.861 | 0.279
